“Also recorded” adds a separate entry of the source.
Columns and labels:
factor VII (FVII) = experiment: LNP-siRNA activity in the mouse Factor VII model; type: in vivo; settings: C57Bl/6 mice, 24 hours post-injection; for Activity in mediating FVII gene-silencing (residual serum FVII levels): i.v. tail vein, 0.03-0.3 mg/kg siRNA
Experimental: Lipid nanoparticle (LNP) formulations containing cationic lipids of the disclosure and FVII siRNA were injected via a tail vein in C57Bl/6 wild-type mice and the levels of FVII in plasma was measured post injection. The mice were injected with LNP-siRNA at doses of 0.03 (left bar), 0.1 (middle bar) and 0.3 mg/kg (right bar). The cationic lipids incorporated in the LNPs were INT-A001, INT-A002, INT-A003 and INT-A007.
LNPs prepared as described in Example 2 containing siRNA against factor VII (FVII) were diluted with PBS such that injection volumes were maintained at 10 mL/kg body weight and administered (based on siRNA concentration) intravenously via tail vein in 6 to 8 weeks old female C57Bl/6 mice (Charles River Laboratories, Wilmington, Mass.). At 24 hours post-injection, animals were euthanized and blood was collected via intracardiac sampling. Blood samples were allowed to coagulate at 4° C. overnight and the serum was separated followed by centrifugation for 15 min at 12,000 rpm. The serum FVII levels were determined using the Biophen VII chromogenic assay (Aniara, Mason, Ohio) according to the protocol of the manufacturer.

[1] = system: Firefly Luciferase mRNA expression in liver; experiment: LNP luciferase mRNA expression in vivo in the liver of mice; set-up: species or system mouse; settings: C57Bl/6 mice, 1 mg/kg mRNA i.v., liver at 4 hours post-injection
Experimental: Lipid nanoparticle (LNP) formulations containing cationic lipids of the disclosure and Luciferase mRNA were injected via a tail vein in C57Bl/6 wild-type mice at mRNA dose of 1 mg/kg and the luminescence in the liver was measured post injection. From left-to-right, the cationic lipids incorporated in the LNP-mRNA were INT-A001, INT-A002, INT-A003 and INT-A004. Untreated animals were injected with phosphate buffered saline (PBS).
To assess in vivo activity, LNPs containing Firefly Luciferase mRNA were prepared as described in Example 2. LNPs were diluted with PBS and administered at 1 mg/kg intravenously via tail vein in 6 to 8 weeks old female C57Bl/6 mice (Charles River Laboratories, Wilmington, Mass.). At 4 hours post-injection, animals were euthanized and the livers were collected. Approximately 100 mg of liver was homogenized in 0.5 mL Glo Lysis Buffer (Promega). The homogenate was further diluted 1:4 with the lysis buffer and then 50 μL of diluted homogenate was added to 50 μL Steady-Glo reagent (Promega). The level of luminescence was determined using a Synergy LX plate reader (BioTek).

[2] = Apparent pKa of LNP systems (TNS fluorescence assay); type: physicochemical; settings: LNP containing ionizable lipid and FVII siRNA
Experimental: Apparent acid dissociation constants (pKa) of LNP systems were determined according to a procedure described in the literature (Jayaraman, M., et al., Maximizing the potency of siRNA lipid nanoparticles for hepatic gene silencing in vivo. Angewandte Chemie, 2012. 51(34): p. 8529-33). Briefly, 2-(p-toluidino)-6-napthalene sulfonic acid (TNS, Sigma-Aldrich, St. Louis, Mo.) and LNP were diluted in buffer (10 mM HEPES, 10 mM MES and 10 mM ammonium acetate) with pH ranges from 2.5 to 11. Final concentration of TNS or total lipid was 6 μM. Samples were then mixed and fluorescence intensity was measured (Ex/Em: 321/445 nm) using a Perkin Elmer LS55. A sigmoidal best fit analysis was applied and the pKa was measured as the pH at half-maximal fluorescence intensity.

[3] = Peptide incorporation into LNP (Peptide:Lipid ratio; BCA or CBQCA protein quantification); type: physicochemical
Experimental: (§1) Lipid concentrations were determined by measuring total cholesterol using the Cholesterol E enzymatic assay kit from Wako Chemicals USA (Richmond, Va.).
Quantification of protein/peptide was performed with the use of either the BCA Protein Assay (Pierce) or the CBQCA Protein Quantitation Kit (Invitrogen) according to the manufacturer's instructions.

HepG2 cells = experiment: LNP luciferase mRNA expression in cultured HepG2 cells; type: cell-based; settings: 0.125-1 μg/mL luciferase mRNA, 16-24 hr
Experimental: Cells were treated with LNP formulations containing ionizable lipids of the disclosure and luciferase mRNA at concentrations of 0.125-1 μg/mL. The level of luminescence was measured post treatment. From left-to-right, the ionizable lipids incorporated in the LNPs were INT-A001 (white bar), INT-A002 (dotted bar), INT-A003 (black bar) and INT-A004 (gray bar).
The activity of the ionizable lipids in vitro was evaluated in cultured HepG2 cells. LNPs containing Firefly Luciferase mRNA were prepared as described in Example 2. LNPs were diluted to 0.125-1 μg/mL with DMEM media containing 10% FBS and incubated with HepG2 cells for 16-24 hr. Cells were then lysed with Glo-Lysis Buffer (Promega). Equal amounts of Steady-Glo reagent (Promega) was added to each sample and the level of luminescence was determined using a Synergy LX plate reader (BioTek).

[4] = RNA or antisense oligonucleotide encapsulation efficiency (Quant-iT Ribogreen RNA / Oligreen ssDNA assays); type: physicochemical
Experimental: The RNA or antisense oligonucleotide encapsulation efficiency was determined using the Quant-iT Ribogreen RNA or Oligreen ssDNA Assays, respectively (Life Technologies, Burlington, ON). Briefly, LNP was incubated at 37° C. for 10 min in the presence or absence of 1% Triton X-100 (Sigma-Aldrich, St. Louis, Mo.) followed by the addition of the Ribogreen or Oligreen reagent. The fluorescence intensity (Ex/Em: 480/520 nm) was determined and samples treated with Triton X-100 represent total nucleic acid while untreated samples represent unencapsulated nucleic acid.
To prepare the LNPs, ionizable lipid, DSPC, cholesterol and PEG-DMPE were dissolved in ethanol. The siRNA was dissolved in pH 4.0-6.2 buffer composed of 10-50 mM acetate, succinate or citrate. In select cases, 10-50 mM 4-(2-Hydroxyethyl)piperazine-1-ethanesulfonic acid (HEPES) or 2-(N-Morpholino)ethanesulfonic acid (MES) buffer was used. LNP were prepared by rapidly mixing the lipid components in ethanol (in molar ratio of 50/10/38.5/1.5 of […]) with nucleic acids in aqueous buffer at a volumetric flow rate ratio of 1:3 (ethanol to aqueous, combined flow rate >12 mL/min) at room temperature. Typically, siRNA/lipids ratios were targeted for 0.056 wt/μmol. The product was then dialyzed against 1× phosphate-buffered saline (PBS) at pH 7.4 for 24 hours to remove residual ethanol and to raise the pH. PBS was refreshed after 4 hours.

[5] = LNP particle size and polydispersity by dynamic light scattering; type: physicochemical
[6] = HA incorporation into LNP (HA:Lipid ratio); type: physicochemical; settings: LNP containing ionizable lipid and HA (8-15 kDa)
Experimental: as §1
Hyaluronic acid was used as an example of anionic cargos. LNPs were prepared as described in Example 2 containing HA with a molecular weight of 8-15 kDa.

[7] = LNP containing ionizable lipid and a 4.2 kDa acidic peptide (net charge -3)
[8] = LNP containing ionizable lipid and Luciferase mRNA
[9] = LNP containing ionizable lipid and antisense oligonucleotide
[10] = LNP containing ionizable lipid and siRNA
[11] = LNP containing ionizable lipid and HA (8-15 kDa)
[12] = LNP containing ionizable lipid and a 2.0 kDa acidic peptide (net charge -3)
[13] = LNP containing ionizable lipid and a 2.0 kDa basic peptide (net charge +4)

Apparent pKa [2] | Peptide:Lipid [3, 7] | Encapsulation Efficiency [4, 8] | Encapsulation Efficiency [4, 9] | Encapsulation Efficiency [4, 10] | Particle Diameter [5, 8] | Polydispersity index (PDI) [5, 8] | Particle Diameter [5, 7] | Polydispersity index (PDI) [5, 7] | Particle Diameter [5, 9] | Polydispersity index (PDI) [5, 9] | Particle Diameter [5, 10] | Polydispersity index (PDI) [5, 10] | HA:Lipid [6] | Particle Diameter [5, 11] | Polydispersity index (PDI) [5, 11] | Peptide:Lipid [3, 12] | Compound | Activity in mediating FVII gene-silencing (residual serum FVII levels) (factor VII (FVII)) | Activity in delivering mRNA and inducing mRNA expression in vivo (liver luminescence) [1] | Activity in delivering mRNA and inducing its expression in vitro (luminescence) (HepG2 cells) | further results
6.3 | 0.161 wt/wt | 96% | 84% | 89% | 43 nm | 0.064 | 48 nm | 0.021 | 44 nm | 0.103 | 50 nm | 0.059 |  |  |  |  | CCCCC/C=C\C/C=C\CCCCCCCC(=O)O[C@@H](CCCCCCCC)[C@@H](CCCCCCCC(=O)OCCN(C)C)OC(=O)CCCCCCC/C=C\C/C=C\CCCCC (racemic) [INT-A001, 2-(Dimethylamino)ethyl (±)-syn-9,10-dilinoleoxystearate] | active in mediating gene-silencing | can effectively deliver mRNA | can effectively deliver mRNA | 
 | 0.157 wt/wt | 99% | 92% | 97% | 47 nm | 0.053 | 62 nm | 0.015 | 49 nm | 0.096 | 52 nm | 0.063 | 0.093 wt/wt | 83 nm | 0.027 |  | CCCCC/C=C\C/C=C\CCCCCCCC(=O)O[C@@H](CCCCCCCC)[C@@H](CCCCCCCC(=O)OCCCN(CC)CC)OC(=O)CCCCCCC/C=C\C/C=C\CCCCC (racemic) [INT-A002, 3-(Diethylamino)propyl (±)-syn-9,10-dilinoleoxystearate] | active in mediating gene-silencing; also recorded: most active |  | can effectively deliver mRNA | ED 50 (effective dose to achieve 50% gene-silencing) (factor VII (FVII); i.v. LNP FVII siRNA, estimated): less than 0.1 mg/kg; Activity in delivering mRNA and inducing mRNA expression in vivo (liver luminescence) ([1]; 1 mg/kg): can effectively deliver mRNA; also recorded: most active
 | 0.160 wt/wt | 99% | 89% | 92% | 49 nm | 0.050 | 76 nm | 0.031 | 54 nm | 0.036 | 55 nm | 0.043 | 0.094 wt/wt | 64 nm | 0.035 | 0.074 wt/wt | CCCCC/C=C\C/C=C\CCCCCCCC(=O)O[C@@H](CCCCCCCC)[C@@H](CCCCCCCC(=O)OCCCN(C)C)OC(=O)CCCCCCC/C=C\C/C=C\CCCCC (racemic) [INT-A003, 3-(Dimethylamino)propyl (±)-syn-9,10-dilinoleoxystearate] | active in mediating gene-silencing | can effectively deliver mRNA | can effectively deliver mRNA; also recorded: most active | Particle Diameter [5, 12]: 142 nm; Polydispersity index (PDI) [5, 12]: 0.025
5.8 | 0.158 wt/wt | 96% | 88% | 61% | 42 nm | 0.090 | 40 nm | 0.034 | 45 nm | 0.065 | 58 nm | 0.024 |  |  |  | 0.073 wt/wt | CCCCC/C=C\C/C=C\CCCCCCCC(=O)O[C@@H](CCCCCCCC)[C@@H](CCCCCCCC(=O)OCCN(CC)CC)OC(=O)CCCCCCC/C=C\C/C=C\CCCCC (racemic) [INT-A004, 2-(Diethylamino)ethyl (±)-syn-9,10-dilinoleoxystearate] |  | can effectively deliver mRNA | can effectively deliver mRNA | Particle Diameter [5, 12]: 59 nm; Polydispersity index (PDI) [5, 12]: 0.051
 |  |  |  |  |  |  |  |  |  |  |  |  |  |  |  |  | CCCCC/C=C\C/C=C\CCCCCCCC(=O)O[C@@H](CCCCCCCC)[C@@H](CCCCCCCC(=O)O)OC(=O)CCCCCCC/C=C\C/C=C\CCCCC (racemic) [INT-A008, (±)-syn-9,10-Dilinoleoxystearic Acid] |  |  |  | Peptide:Lipid [3, 13]: 0.104 wt/wt; Particle Diameter [5, 13]: 39 nm; Polydispersity index (PDI) [5, 13]: 0.058
 |  |  |  |  |  |  |  |  |  |  |  |  |  |  |  |  | CCCCCCCCC(CCCCCC)C(=O)O[C@@H](CCCCCCCC)[C@@H](CCCCCCCC(=O)O)OC(=O)C(CCCCCC)CCCCCCCC (mixture of isomers) [INT-A009, (±)-syn-9,10-Bis(2-hexyldecanoyloxy)stearic Acid] |  |  |  | Peptide:Lipid [3, 13]: 0.121 wt/wt; Particle Diameter [5, 13]: 39 nm; Polydispersity index (PDI) [5, 13]: 0.057
